Assay results taken from paper PMC7367873, “Dissecting the sequence determinants for dephosphorylation by the catalytic subunits of phosphatases PP1 and PP2A” (Nature Communications, 2020).

Each substance was assayed against T1, PP2Ac (Homo sapiens, UniProt P67775) (assay: Kinetics of phosphopeptide dephosphorylation by PP2Ac (EnzChek Phosphate Assay)). Settings: non-competitive phosphatase activity assay, Supplementary Fig. 3c.
T1 construct: purchased Cayman Chemical 10011237
T1 sequence (P67775 1-308 limits assumed): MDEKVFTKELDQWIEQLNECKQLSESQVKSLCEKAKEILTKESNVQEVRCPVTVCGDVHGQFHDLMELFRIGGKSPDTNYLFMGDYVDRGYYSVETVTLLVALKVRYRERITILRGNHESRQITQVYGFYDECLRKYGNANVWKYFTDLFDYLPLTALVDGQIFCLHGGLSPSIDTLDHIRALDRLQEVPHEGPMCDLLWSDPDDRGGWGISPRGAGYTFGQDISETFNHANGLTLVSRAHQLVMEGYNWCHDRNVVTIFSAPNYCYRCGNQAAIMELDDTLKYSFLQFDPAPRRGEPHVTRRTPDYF
Format: biochemical
Description: (§1) Prior to library dephosphorylation with subsequent MS analysis, as well as for the confirmation of MS results by directed peptide synthesis and dephosphorylation kinetics, the release of phosphate over time from peptides or libraries had to be monitored: The libraries and peptides were dissolved in 25% DMSO and 75% H2O at 10 mM. The EnzChek Phosphate Assay Kit (Thermo Fisher Scientific) was used to assess the kinetics/dynamics of the library or peptide dephosphorylation by PP1c and PP2Ac. The assay was carried out in a volume of 100 µL reaction buffer (20 mM Tris, 100 mM NaCl, 1 mM DTT, 0.15 units PNP, 0.2 mM MESG,) containing 100 µM phosphopeptide library or indicated concentrations of peptide and 25 nM phosphatase. Because of our goal to identify differences in selectivity, we used equimolar concentrations of the phosphatases. […] The change of absorbance was detected at 360 nm at 25 °C on a Synergy H4 microplate reader using the software Gen5. […] For analysis of enzyme kinetics, raw data were further analyzed in GraphPad Prism v6.
(§2) The datasets of Nterm or Cterm libraries treated with recombinant PP1c and PP2Ac were used. […] Data analysis was carried out in GraphPad Prism v6 and the kcat/Km was calculated by comparison to a phosphate standard. […]
“AAAApTPFGAK [Cterm peptide with Pro in +1]” was tested, and the “dephosphorylation by PP2Ac of peptide with Pro in +1 (in words)” value was “unable to dephosphorylate”.

Each substance was assayed against T2, PP1c (Homo sapiens, UniProt P62136) (assay: Kinetics of phosphopeptide dephosphorylation by PP1c (EnzChek Phosphate Assay)). Settings: non-competitive phosphatase activity assay, Supplementary Fig. 3c.
T2 construct: His tag with TEV site (N, cleaved yes); intein (pTXB1) (C, cleaved yes); made in house; host or cells: E. coli BL21Star(DE3)pRARE
T2 sequence (P62136 whole entry): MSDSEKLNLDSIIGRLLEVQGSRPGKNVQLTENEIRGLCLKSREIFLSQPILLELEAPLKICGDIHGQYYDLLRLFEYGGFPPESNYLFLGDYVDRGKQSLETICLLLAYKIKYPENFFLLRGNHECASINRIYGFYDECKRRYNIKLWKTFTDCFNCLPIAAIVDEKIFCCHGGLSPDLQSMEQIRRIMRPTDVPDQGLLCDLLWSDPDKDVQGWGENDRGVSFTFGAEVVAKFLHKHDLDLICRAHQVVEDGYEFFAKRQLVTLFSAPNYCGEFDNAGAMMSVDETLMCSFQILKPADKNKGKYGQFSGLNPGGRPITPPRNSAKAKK
Format: biochemical
Description: as §1, §2
For “AAAApTPFGAK [Cterm peptide with Pro in +1]”, the “dephosphorylation by PP1c of peptide with Pro in +1 (in words)” value was “good substrate”.

Each substance was assayed on PP1c/PP2Ac (assay: PP1c versus PP2Ac specificity of p-sites (pairwise comparison / hierarchical clustering of phosphoproteomic data)). Settings: HeLa Kyoto lysate, 1 µM PP1c or PP2Ac.
Format: biochemical, human
Description: For phosphoproteomics, HeLa Kyoto cells were incubated with 20 nM Calyculin A (CST, #9902) for 10–15 min. This time point was determined empirically to yield maximal phosphatase inhibition without cells showing pleiotropic effects. Subsequently, cells were placed on ice and washed twice with cold PBS and scraped in lysis buffer (100 mM NaCl, 10 mM Tris, 0.1% IGEPAL, 1 mM EDTA, 1 mM EGTA, 20 nM Calyculin A, 1x cOmplete Mini protease inhibitor cocktail (Sigma), 1 mM DTT, 1 mM MnCl2, pH 7.5). After 10 pushes through an injection needle (21 G, BD), lysate was cleared from the insoluble fraction by centrifugation (10 min, 10^4 rcf, 4 °C). Protein concentration was then determined by a Bradford Assay and equal amounts of 1 mg total protein were incubated with recombinant PP1c/PP2Ac or buffer at a final phosphatase concentration of 1 µM in a total volume of 200 µL for 1 h at 30 °C. Lysates were then immediately placed on ice. PhosStop […] (Roche) was added and proteins were denatured by adding urea to a final concentration of 8 M taking into account the volume increase. Samples were then snap-frozen in liquid nitrogen for storage and subsequent MS analysis.
Downstream analysis of the phosphoproteomic datasets was carried out using the software tool Perseus[66]. For analysis of phosphoproteomic experiments, row-wise, median-normalized data (see previous section) was linked to known regulatory sites by PhosphoSitePlus entries and categorical columns for treatments were assigned. Reverse peptides and potential contaminants were filtered. Next, categorical columns for biological functions and treatments were assigned. TMT reporter intensities were then transformed into log2. At this point, all data were then filtered for valid values in all three replicates of at least one condition. Next, the distribution of TMT reporter intensities was assessed visually by plotting count-based histogramms and in a multiscatter plot using the Pearson correlation as an estimate of reproducibility. Next, NA (=not available: missing) values were replaced by imputation from a normal distribution (width 0.3, down-shift 1.8, per column). The data quality was routinely assessed by two means: First, by plotting a histogram of peptide length vs. counts and visualization of imputed values to confirm a normal distribution of the data, and secondly by principal component analysis (default settings in Perseus) to judge the sample grouping.
For hierarchical clustering, the results of the one-way ANOVA were processed for two more steps in Perseus: first data were filtered for significant hits from the one-way ANOVA and then subjected to z-transformation. Hierarchical clustering images were produced using Euclidean distance, 300 clusters and 10 rounds of iteration.
Also all further data processing for protein enrichment and extraction of protein sequences in positions −5 to +5 relative to the p-sites of interest for subsequent motif analysis was performed using RStudio with R v3.3.2 using the packages tidyverse and BioStrings. In order to study the sequence specificity of PP1c and PP2Ac on the protein level, position specific probability matrices, representing the relative occurrence for each amino acid surrounding pSer/pThr were produced by extracting sequence information in positions −5 to +5 for all PP1c/PP2Ac-sensitive class I p-sites. Next, the count for each amino acid in each position was divided by the total of all counts for a certain position, resulting in relative abundance. […] Importantly, amino acids with less than 25 counts in PP1-sensitive/-insensitive or PP2A-sensitive/insensitive comparisons were excluded. For calculating a heat map directly comparing PP1c against PP2Ac, these fold changes were divided. […] Obtained p-values were adjusted for multiple testing using the method of Benjamini and Hochberg.
PP1c/PP2Ac-sensitive class I sites were divided into three classes as illustrated for PP1c in Supplementary Fig. 4c. […]
For “LHQCISRRAENARSASFSQGTRASFLMRSDT [GAB2 210]”, the “GAB2 pS210 dephosphorylation in phosphoproteomic assay” value was “dephosphorylated by PP1c but not PP2Ac”.

Same assay, conditions: p-site significantly decreased exclusively by PP1c or PP2Ac; 1 µM phosphatase, HeLa Kyoto lysate, 1 h, 30 °C
In the case of “EVPVPPPVPPRRRPESAPAESSPSKIMSKHL [SOS1 1161]”, the “Sensitivity (phosphatase exclusively dephosphorylating the p-site)” value is reported as “PP1c”.
In the case of “HPPRKISTEDINKRLSLPADIRLPEGYLEKL [CDK16 119]”, the “Sensitivity (phosphatase exclusively dephosphorylating the p-site)” value is reported as “PP1c”.
With “HSF1 303: 14-3-3 interaction site, window KEEPPSPPQSP” the “Sensitivity (phosphatase exclusively dephosphorylating the p-site)” value was “PP2Ac”.
With “HSF1 307: 14-3-3 interaction site, window PSPPQSPRVEE” the “Sensitivity (phosphatase exclusively dephosphorylating the p-site)” value was “PP2Ac”.
For “ISPTIVQQFGYQRRASDDGKLTDPSKTSNTI [RAF1 43]”, the “Sensitivity (phosphatase exclusively dephosphorylating the p-site)” value was “PP1c”.
For “KGDIKSKSRSRSQSRSNSPLPVPPSKARSVS [SRSF6 301]”, the “Sensitivity (phosphatase exclusively dephosphorylating the p-site)” value was “PP1c”.
In the case of “KRKSKSRSRSKRPPKSPEEEGQMSS______ [SRSF8 273]”, the “Sensitivity (phosphatase exclusively dephosphorylating the p-site)” value is reported as “PP1c”.
For “LHQCISRRAENARSASFSQGTRASFLMRSDT [GAB2 210]”, the “Sensitivity (phosphatase exclusively dephosphorylating the p-site)” value was “PP1c”.
For “NIFSRGANRMRGRLGSVDSFERSNSLASEKD [TBC1D4 588]”, the “Sensitivity (phosphatase exclusively dephosphorylating the p-site)” value was “PP1c”.
“SPPPVSKRESKSRSRSKSPPKSPEEEGAVSS [SRSF2 206]” was tested, and the “Sensitivity (phosphatase exclusively dephosphorylating the p-site)” value was “PP1c”.
For “SRSF1 199: S/R-rich splicing factor p-site, window VDGPRSPSYGR”, the “Sensitivity (phosphatase exclusively dephosphorylating the p-site)” value was “PP1c”.
In the case of “SRSF2 189: S/R-rich splicing factor p-site, window RSRSRSRSPPP”, the “Sensitivity (phosphatase exclusively dephosphorylating the p-site)” value is reported as “PP1c”.
With “SRSF2 191: S/R-rich splicing factor p-site, window RSRSRSPPPVS” the “Sensitivity (phosphatase exclusively dephosphorylating the p-site)” value was “PP1c”.
For “SRSF4/5/6 113;117;119: S/R-rich splicing factor p-site, window VENLSSRCSWQ”, the “Sensitivity (phosphatase exclusively dephosphorylating the p-site)” value was “PP2Ac”.
In the case of “SRSF5 231: S/R-rich splicing factor p-site, window KSRSVSRSPVP”, the “Sensitivity (phosphatase exclusively dephosphorylating the p-site)” value is reported as “PP1c”.
With “SRSF5 233: S/R-rich splicing factor p-site, window RSVSRSPVPEK” the “Sensitivity (phosphatase exclusively dephosphorylating the p-site)” value was “PP1c”.
With “SRSF7 192: S/R-rich splicing factor p-site, window SRYFQSPSRSR” the “Sensitivity (phosphatase exclusively dephosphorylating the p-site)” value was “PP1c”.
With “SRSF8 158: S/R-rich splicing factor p-site, window SRYSRSPYSRS” the “Sensitivity (phosphatase exclusively dephosphorylating the p-site)” value was “PP1c”.
With “SRSF8 163: S/R-rich splicing factor p-site, window SPYSRSPYSRS” the “Sensitivity (phosphatase exclusively dephosphorylating the p-site)” value was “PP1c”.
With “SRSF10 133: S/R-rich splicing factor p-site, window RSRSRSFDYNY” the “Sensitivity (phosphatase exclusively dephosphorylating the p-site)” value was “PP1c”.
For “SRSF11 207: S/R-rich splicing factor p-site, window AAGLVSPSLKS”, the “Sensitivity (phosphatase exclusively dephosphorylating the p-site)” value was “PP2Ac”.
For “USP8 718: 14-3-3 interaction site, window LKRSYSSPDIT”, the “Sensitivity (phosphatase exclusively dephosphorylating the p-site)” value was “PP1c”.
For “YAP1 127: 14-3-3 interaction site, window VRAHSSPASLQ”, the “Sensitivity (phosphatase exclusively dephosphorylating the p-site)” value was “PP2Ac”.
